Experimental data taken from the NIST ThermoML archive (doi:10.1016/j.jct.2015.12.014).

Legend:
[1] = Crystal; for vapor or sublimation pressure: Calculated from knudsen effusion weight loss
[2] = Molar enthalpy of transition or fusion; details: Crystal; DSC
[3] = molar heat capacity at constant pressure; details: 101.33 kPa, Crystal, Small sample (50 mg) DSC

O=C(O)/C=C\c1ccccc1 [cis-cinnamic acid]
Details | Normal melting temperature [°C] | molar heat capacity at constant pressure [J/K/mol] | vapor or sublimation pressure [kPa]
[1], 306.21 K | – | – | 8.16e-05
[1], 308.18 K | – | – | 0.0001123
[1], 310.2 K | – | – | 0.0001346
[1], 312.15 K | – | – | 0.0001819
[1], 314.14 K | – | – | 0.0002297
[1], 316.16 K | – | – | 0.0002837
[1], 318.1 K | – | – | 0.0003808
[1], 320.19 K | – | – | 0.0004592
[1], 322.05 K | – | – | 0.000572
[1], 324.08 K | – | – | 0.0007647
[1], 326.1 K | – | – | 0.0009201
[1], DTA | 67.0 | – | –
[3], 257.15 K | – | 155 | –
[3], 258.15 K | – | 155.9 | –
[3], 259.15 K | – | 156 | –
[3], 260.15 K | – | 156.5 | –
[3], 261.15 K | – | 156.9 | –
[3], 262.15 K | – | 157.5 | –
[3], 263.15 K | – | 158.1 | –
[3], 264.15 K | – | 158.7 | –
[3], 265.15 K | – | 159.1 | –
[3], 266.15 K | – | 159.7 | –
[3], 267.15 K | – | 160.2 | –
[3], 268.15 K | – | 160.8 | –
[3], 269.15 K | – | 161.2 | –
[3], 270.15 K | – | 161.6 | –
[3], 271.15 K | – | 162.2 | –
[3], 272.15 K | – | 163 | –
[3], 273.15 K | – | 163.3 | –
[3], 274.15 K | – | 163.9 | –
[3], 275.15 K | – | 164.3 | –
[3], 276.15 K | – | 165.3 | –
[3], 277.15 K | – | 165.8 | –
[3], 278.15 K | – | 166.2 | –
[3], 279.15 K | – | 166.7 | –
[3], 280.15 K | – | 167.3 | –
[3], 281.15 K | – | 167.9 | –
[3], 282.15 K | – | 168.5 | –
[3], 283.15 K | – | 169.1 | –
[3], 284.15 K | – | 169.5 | –
[3], 285.15 K | – | 170.4 | –
[3], 286.15 K | – | 170.8 | –
[3], 287.15 K | – | 171.4 | –
[3], 288.15 K | – | 171.9 | –
[3], 289.15 K | – | 172.6 | –
[3], 290.15 K | – | 173.2 | –
[3], 291.15 K | – | 173.9 | –
[3], 292.15 K | – | 174.5 | –
[3], 293.15 K | – | 175.1 | –
[3], 294.15 K | – | 175.9 | –
[3], 295.15 K | – | 176.5 | –
[3], 296.15 K | – | 176.9 | –
[3], 297.15 K | – | 177.6 | –
[3], 298.15 K | – | 178.1 | –
[3], 299.15 K | – | 178.7 | –
[3], 300.15 K | – | 179.1 | –
[3], 301.15 K | – | 179.9 | –
[3], 302.15 K | – | 180.6 | –
[3], 303.15 K | – | 181.3 | –
[3], 304.15 K | – | 182.1 | –
[3], 305.15 K | – | 183 | –
[3], 306.15 K | – | 183.7 | –
[3], 307.15 K | – | 184.6 | –
[3], 308.15 K | – | 185.3 | –
[3], 309.15 K | – | 185.9 | –
[3], 310.15 K | – | 186.8 | –
[3], 311.15 K | – | 187.9 | –
[3], 312.15 K | – | 188.6 | –
[3], 313.15 K | – | 189.3 | –
[3], 314.15 K | – | 190.2 | –
[3], 315.15 K | – | 191.3 | –
[3], 316.15 K | – | 192.3 | –
[3], 317.15 K | – | 193.5 | –
[3], 318.15 K | – | 194.5 | –
[3], 319.15 K | – | 195.9 | –
[3], 320.15 K | – | 197.5 | –
[3], 321.15 K | – | 199.1 | –
[3], 322.15 K | – | 201.1 | –

Details | Molar enthalpy of transition or fusion [kcal/mol]
[2] | 4.02
